Experimental data from patent publication US20150167016A1, “Plants Tolerant to HPPD Inhibitor Herbicides” (Bayer CropScience AG, priority 2009, published 2015).
Several values for one entry are separate records, joined by “and”; a condition that tells them apart may be missing. Identical values can stand only once. Like-named read-outs stand apart in the source and are kept apart here.

Columns and labels:
[1] = tested on: Picrophilus torridus HPPD "SEQ ID No. 5"; assay: biochemical; assay type: biochemical
[2] = tested on: tobacco calli containing HPPD SEQ ID No. 11 (Arabidopsis thaliana); assay: Rooting of calli on media with tembotrione; assay type: cell-based, Nicotiana tabacum; conditions: calli containing SEQ ID No. 11; 6 to 12 weeks
Procedure: (§1) The leaf disks were co-cultivated for 2 days with Agrobacterium tumefaciens cells containing either the binary vector FMP29ebv or AtHPPDbv. Then the leaf disks were transferred to a media allowing the regeneration of shoots for 6 weeks on MS (Musharige and Skoog, (1962), Physiol Plant 15(3): 473-497) media supplemented with BAP (1 mg/mL; Benzylaminopurine), carbenicillin (250 mg/mL), cefotaxine (250 mg/mL), kanamycin (75 mg/mL) and tembotrione (10^−6 M) Regenerated calli were transferred on media to induce the development of roots for 6 to 12 weeks: MS (½), supplemented with carbenicillin (250 mg/mL), cefotaxine (250 mg/mL), kanamycin (75 mg/mL), and tembotrione (10^−6 M).
(§2) Regenerated shoot calli from a cell transformed with a nucleic acid sequence encoding an HPPD comprising SEQ ID No. 11 (Arabidopsis thaliana) or SEQ ID No. 7 (Picrophilus torridus) were transferred to a media inducing root growth which media was further supplemented with the HPPD inhibitor tembotrione for 6 to 12 weeks.

[3] = tested on: tobacco calli containing HPPD SEQ ID No. 7 (Picrophilus torridus); assay: Rooting of calli on media with tembotrione; assay type: cell-based, Nicotiana tabacum; conditions: calli containing SEQ ID No. 7, 6 to 12 weeks
Procedure: as §1, §2

[4] = tested on: T1 tobacco plants containing Arabidopsis HPPD; assay: Glasshouse spray trial, herbicidal damage; assay type: in vivo, Nicotiana tabacum; conditions: not selected for transgene
Procedure: (§3) T0 Tobacco plants containing either the gene from Arabidopsis coding for HPPD or the gene FMP29e from Picrophilus torridus coding for FMP29 HPPD, mentioned above (Example3), were transferred to the glasshouse (28/20° C.), to develop further and produce seeds. Those seeds were harvested and put on soil (ED73 mixed with sand and osmocote Pro) to germinate in the glasshouse (28/20° C.). Three to four weeks later, plantlets were transferred to single pots containing the soil mentioned above. Two weeks later, plants of a size 4-6 cm diameter were sprayed with either • tembotrione at 100 gAl/ha prepared from a WP20 (wettable powder 20%) formulation supplemented with ammonium sulfate and methyl ester raps oil, or • isoxaflutole at 100 gAl/ha prepared from a WP20 formulation supplemented with ammonium sulfate and methyl ester raps oil, or • bicyclopyrone at 100 gAl/ha prepared from a WP20 formulation supplemented with ammonium sulfate and methyl ester raps oil, or • “blind formulation” made from a WP20 formulation without active ingredient (Al) supplemented with ammonium sulfate and methyl ester raps oil, and were then transferred to a growth chamber with adequate light conditions (20000 Lux).
(§4) Table 5: Wild type tobacco plants (A) and Ti populations of tobacco events containing alternatively, the expression cassettes described above having the promoter CaMV 35S, the sequence coding for OTP and the sequence coding for Arabidopsis HPPD (B) or the promoter CaMV35S, the sequence encoding OTP, and the sequence FMP29e coding for the HPPD FMP29 (C). Assessments of herbicidal damage at 7 days after application (DAT) per spray with 100 g Al/ha of tembotrione or isoxaflutole supplemented with ammonium sulfate and methyl ester raps oil. […] Plants belonging to categories (B) and (C) have not been selected for the presence of the respective transgene prior to the herbicide application.

[5] = tested on: T1 tobacco plants containing FMP29e (Picrophilus torridus HPPD FMP29); assay: Glasshouse spray trial, herbicidal damage; assay type: in vivo, Nicotiana tabacum; conditions: for tolerance of plants containing FMP29e gene: 7 DAT, 100 g Al/ha spray; for % injury, 7DAT, 100 g Al/ha: FMP29e, not selected for transgene
Procedure: as §3, §4

[6] = tested on: Wild type tobacco plants; assay: Glasshouse spray trial, herbicidal damage; assay type: in vivo, Nicotiana tabacum; conditions: individual plants, 100% = same bleaching as wild type
Procedure: as §3, §4

[7] = target: (UniProt Q6KZ98); assay: biochemical; assay type: biochemical, Picrophilus torridus; conditions: read-out: pI50 (converted)
[8] = tested on: T1 tobacco plants carrying FMP29e from Picrophilus torridus; assay: Glasshouse response to bicyclopyrone, injury classes; assay type: in vivo, Nicotiana tabacum; conditions: 100 g Al/ha, 7 DAT
Source text: (§5) Seeds of wild type tobacco plants and T1 tobacco plants carrying the gene from Picrophilus torridus FMP29e coding for HPPD were sown on MS media (Murashige and Skoog […]) supplemented with […] kanamycin. After 4 weeks, rooted green plantlets were transferred to soil and grown for 3 weeks in the glasshouse as described above then sprayed with a mixture containing bicyclopyrone (100 g Al/ha), ammonium sulfate and methyl ester raps oil. The plants were classified in two categories based on the phenotype developed in response to the herbicide seven days after the treatment. […] In this case, only plants containing at least one T-DNA were exposed to the herbicidal treatment.

[9] = tested on: Wild type tobacco plants; assay: as above; assay type: in vivo, Nicotiana tabacum; conditions: WT; 100 g Al/ha, 7 DAT
Source text: as §5

[10] = target: T1, Arabidopsis thaliana HPPD "SEQ ID No. 10" (Arabidopsis thaliana, UniProt P93836); assay: HPPD activity in presence of HPPD inhibitors (spectrophotometric assay of WO 2009/144079); assay type: biochemical
T1 construct: made in house; host or cells: E. coli K-12 BL21 (pQE30-AtHPPD)
T1 sequence (P93836 with tags, fused parts or gaps): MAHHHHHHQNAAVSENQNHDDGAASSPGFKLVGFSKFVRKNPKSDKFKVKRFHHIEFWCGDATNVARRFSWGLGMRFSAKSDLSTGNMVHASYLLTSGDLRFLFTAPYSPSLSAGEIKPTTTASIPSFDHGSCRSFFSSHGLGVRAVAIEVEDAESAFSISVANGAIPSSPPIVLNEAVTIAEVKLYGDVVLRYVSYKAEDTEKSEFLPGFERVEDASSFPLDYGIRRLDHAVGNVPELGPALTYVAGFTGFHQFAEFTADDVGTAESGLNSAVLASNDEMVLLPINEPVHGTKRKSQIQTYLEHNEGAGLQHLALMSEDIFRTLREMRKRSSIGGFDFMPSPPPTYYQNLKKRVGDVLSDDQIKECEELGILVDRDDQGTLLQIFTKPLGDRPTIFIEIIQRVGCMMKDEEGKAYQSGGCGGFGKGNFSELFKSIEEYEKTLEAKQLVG

[11] = SEQ ID No. 5, 2 mM HPP, 3 minutes incubation, >> = far higher than indicated, not calculable in tested range 2.5 × 10^−6 to 2.5 × 10^−4M
[12] = SEQ ID No. 5, 5.0 × 10^−6M inhibitor
[13] = FMP29e line 121, plants with at least one T-DNA

Q: With `CS(=O)(=O)c1ccc(C(=O)C2C(=O)CCCC2=O)c(Cl)c1COCC(F)(F)F` [Tembotrione, 2-[2-chloro-4-(methylsulfonyl)-3-[(2,2,2,-tri-fluoroethoxy)methyl]benzoyl]-1,3-cyclo-hexanedione] as the molecule, how does the pI50 [1, 11] read?
A: 5.5

Q: What about the “percentage of inhibition compared to the activity measured in absence of the inhibitor” value (“percentage of inhibition” below) [1, 12] of the same molecule?
A: 58%

Q: And the “root growth on media supplemented with tembotrione” value [2]?
A: On none of the events

Q: And the “root growth on media supplemented with tembotrione” value [3]?
A: developed numerous and healthy roots

Q: What about the “% Elongation & rooting on 10^−6M tembotrione” value ([3]; 10^−6M) of the same molecule?
A: 65%

Q: And the “% injury, 7DAT, 100 g Al/ha” value ([4]; line 252, individual T1 plants)?
A: 30% and 40% (3×) and 50% and 60% (2×) and 70% (2×) and 75% (3×) and 80%

Q: What about the “% injury, 7DAT, 100 g Al/ha” value ([4]; line 258, individual T1 plants) of the same molecule?
A: 100% (5×) and 30%

Q: What about the “% injury, 7DAT, 100 g Al/ha” value ([4]; line 327, individual T1 plants) of the same molecule?
A: 10% and 20% (2×) and 40% and 50% and 0% and 70% (5×) and 80% (4×)

Q: What about the “tolerance of plants containing FMP29e gene” value [5] of the same molecule?
A: far more tolerant

Q: And the “% injury, 7DAT, 100 g Al/ha” value ([5]; line 115, individual T1 plants)?
A: 30% and 40% and 50% (3×)

Q: And the “% injury, 7DAT, 100 g Al/ha” value ([5]; line 292, individual T1 plants)?
A: 20% (2×) and 30% and 40% (2×)

Q: And the “% injury, 7DAT, 100 g Al/ha” value [6]?
A: 100%

Q: For `CS(=O)(=O)c1cc(C(F)(F)F)ccc1C(=O)c1cnoc1C1CC1` [Isoxaflutole, (5-cyclopropyl-4-isoxazolyl)[2-(methylsulfonyl)-4-(trifluoromethyl)phenyl]methanone], which “% injury, 7DAT, 100 g Al/ha” value ([4]; line 252, individual T1 plants) is on record?
A: 30% and 70% and 95% and 98% (2×) and 99% (4×) and 100% (4×)

Q: And the “% injury, 7DAT, 100 g Al/ha” value ([4]; line 258, individual T1 plants)?
A: 100%

Q: And the “% injury, 7DAT, 100 g Al/ha” value ([4]; line 327, individual T1 plants)?
A: 10% and 20% and 60% (2×) and 70% and 80% and 95% and 98% and 99% and 100% (6×)

Q: What about the “tolerance of plants containing FMP29e gene” value [5] of the same molecule?
A: far more tolerant

Q: And the “% injury, 7DAT, 100 g Al/ha” value ([5]; line 115, individual T1 plants)?
A: 0% and 2% and 5% and 10% and 15% and 30% (2×) and 40%

Q: And the “% injury, 7DAT, 100 g Al/ha” value ([5]; line 292, individual T1 plants)?
A: 20% and 30% and 40%

Q: And the “% injury, 7DAT, 100 g Al/ha” value [6]?
A: 98% and 99% (2×) and 100% (4×)

Q: For `CS(=O)(=O)c1cc(C(F)(F)F)ccc1C(=O)C(C#N)C(=O)C1CC1` (centres unmarked) [Diketonitrile, 2-cyano-3-cyclopropyl-1-(2-methylsulphonyl-4-trifluoromethylphenyl)-propane-1,3-dione], which IC50 [7] is on record?
A: 12.6 µM

Q: What about the “percentage of inhibition” value [1, 12] of the same molecule?
A: 26%

Q: `CS(=O)(=O)c1ccc(C(=O)C2C(=O)CCCC2=O)c([N+](=O)[O-])c1` [Mesotrione, 2-[4-(methylsulfonyl)-2-nitrobenzoyl]-1,3-cyclohexanedione] was tested. Which “percentage of inhibition” value [1] did it give?
A: 84%

Q: For `Cc1ccc(C(=O)COc2c(C(=O)c3ccc(Cl)c(C)c3Cl)c(C)nn2C)cc1` [Benzofenap], which IC50 [7] is on record?
A: 15.8 µM

Q: What about the “percentage of inhibition” value [1, 12] of the same molecule?
A: 44%

Q: How did the IC50 [7] turn out when `COCCOCc1nc(C(F)(F)F)ccc1C(=O)C1=C(O)C2CCC(C2)C1=O` (centres unmarked) [Bicyclopyrone, 4-hydroxy-3-[[2-[(2-methoxyethoxy)methyl]-6-(trifluoromethyl)-3-pyridinyl]carbonyl]bicyclo[3.2.1]oct-3-en-2-one] was run?
A: 398 µM

Q: And the “percentage of inhibition” value [1, 12]?
A: 24%

Q: What about the “tolerance of plants containing the HPPD FMP29” value [8] of the same molecule?
A: displayed tolerance

Q: What about the “% of tolerant plant” value ([8]; FMP29e line 121) of the same molecule?
A: 2%

Q: What about the “Class I (number of plants, injury: 0-30%)” value [8, 13] of the same molecule?
A: 38

Q: And the “Class II (number of plants, injury: 31-100%)” value [8, 13]?
A: 11

Q: And the “% of tolerant plant” value [9]?
A: 0%

Q: What about the “Class I (number of plants, injury: 0-30%)” value [9] of the same molecule?
A: 0

Q: What about the “Class II (number of plants, injury: 31-100%)” value [9] of the same molecule?
A: 12

Q: For `CS(=O)(=O)c1ccc(C(=O)C2C(=O)CCCC2=O)c(Cl)c1COCC1CCCO1` (centres unmarked) [Tefuryltrione, 2-[2-chloro-4-(methylsulfonyl)-3-[[(tetrahydro-2-furanyl)methoxy]methyl]benzoyl]-1,3-cyclohexanedione], which IC50 [7] is on record?
A: 3.16 µM

Q: And the “percentage of inhibition” value [1, 12]?
A: 87. %

Q: With `Cc1nn(C)c(O)c1C(=O)c1ccc(C(F)(F)F)cc1S(C)(=O)=O` [Pyrasulfotole] as the molecule, how does the pI50 ([10]; 2 mM HPP, 3 minutes incubation, >> = far higher than indicated, not calculable in tested range 2.5 × 10^−6 to 2.5 × 10^−4M) read?
A: 5.4

Q: And the “percentage of inhibition” value ([10]; 5.0 × 10^−6M inhibitor)?
A: 69%

Q: What about the pI50 [1, 11] of the same molecule?
A: 4.0

Q: What about the “percentage of inhibition” value [1, 12] of the same molecule?
A: 7%

Q: Which pI50 [1] does the source give for `CS(=O)(=O)c1ccc(C(=O)C2C(=O)CCCC2=O)c(Cl)c1` [Sulcotrione, 2-[2-chloro-4-(methylsulfonyl)benzoyl]-1,3-cyclohexanedione] here?
A: >5.6

Q: And the “percentage of inhibition” value [1]?
A: 92%
